± gives the expanded uncertainty stated by the source. One block for each compound: values may come before it.
How the values were obtained:
[1] = 298.15 K; 101.33 kPa; Liquid; Vibrating tube method
[2] = excess molar enthalpy (molar enthalpy of mixing); xn = mol fraction of the nth substance listed; conditions: 298.15 K, 101.3 kPa, Liquid, Flow calorimetry

Compound: CCCCCCCC [octane]
mass density [1]: 698.72 ± 0.4 kg/m3

Compound: CCCCCCCCCC [decane]
mass density [1]: 726.3 ± 0.41 kg/m3

The remaining lines, values ahead:

mass density [1]: 718.7 ± 0.41 kg/m3
Compound: CC(C)OC(C)C [diisopropyl ether]

mass density [1]: 659.94 ± 0.4 kg/m3
Compound: CCC(C)CC [3-methylpentane]

excess molar enthalpy ([2]; x2 = 0.05): 0.0101 ± 0.000263 kcal/mol
excess molar enthalpy ([2]; x2 = 0.1): 0.0188 ± 0.000335 kcal/mol
excess molar enthalpy ([2]; x2 = 0.1499): 0.0262 ± 0.000382 kcal/mol
excess molar enthalpy ([2]; x2 = 0.2): 0.0325 ± 0.00043 kcal/mol
excess molar enthalpy ([2]; x2 = 0.2503): 0.0372 ± 0.000478 kcal/mol
excess molar enthalpy ([2]; x2 = 0.2998): 0.041 ± 0.000502 kcal/mol
excess molar enthalpy ([2]; x2 = 0.3501): 0.0439 ± 0.000526 kcal/mol
excess molar enthalpy ([2]; x2 = 0.3997): 0.046 ± 0.00055 kcal/mol
excess molar enthalpy ([2]; x2 = 0.45): 0.0472 ± 0.00055 kcal/mol
excess molar enthalpy ([2]; x2 = 0.5003): 0.0472 ± 0.00055 kcal/mol
excess molar enthalpy ([2]; x2 = 0.5502): 0.0463 ± 0.00055 kcal/mol
excess molar enthalpy ([2]; x2 = 0.5998): 0.0448 ± 0.000526 kcal/mol
excess molar enthalpy ([2]; x2 = 0.65): 0.0422 ± 0.000526 kcal/mol
excess molar enthalpy ([2]; x2 = 0.7002): 0.0387 ± 0.000478 kcal/mol
excess molar enthalpy ([2]; x2 = 0.7501): 0.0343 ± 0.000454 kcal/mol
excess molar enthalpy ([2]; x2 = 0.8003): 0.029 ± 0.000406 kcal/mol
excess molar enthalpy ([2]; x2 = 0.85): 0.0224 ± 0.000359 kcal/mol
excess molar enthalpy ([2]; x2 = 0.9): 0.0158 ± 0.000311 kcal/mol
excess molar enthalpy ([2]; x2 = 0.95): 0.00855 ± 0.000263 kcal/mol
Compound: CCC(C)CC [3-methylpentane] + CC(C)OC(C)C

From the NIST ThermoML archive (doi:10.1021/je030161t)
